Test results published in ChEMBL document CHEMBL4196097, “Emerging Approaches for the Identification of Protein Targets of Small Molecules - A Practitioners' Perspective” (J Med Chem, 2018).
pIC50: −log10 of the molar value.

Experiments:
Adenosine receptor A3 = biological target: T1, Adenosine receptor A3 (Homo sapiens, UniProt P0DMS8); assay: Inhibition of adenosine A3 receptor (unknown origin)
T1 sequence (P0DMS8 whole entry): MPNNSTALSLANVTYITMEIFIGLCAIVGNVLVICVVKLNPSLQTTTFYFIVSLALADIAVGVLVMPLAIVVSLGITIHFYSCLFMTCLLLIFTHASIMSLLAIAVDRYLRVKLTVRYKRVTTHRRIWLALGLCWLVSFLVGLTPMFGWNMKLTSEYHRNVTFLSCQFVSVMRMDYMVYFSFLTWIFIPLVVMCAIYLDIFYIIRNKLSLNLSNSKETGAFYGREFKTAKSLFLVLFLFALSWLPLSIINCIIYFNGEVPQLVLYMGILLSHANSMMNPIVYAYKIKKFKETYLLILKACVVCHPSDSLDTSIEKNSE

Translocator protein = Translocator protein (Homo sapiens, UniProt P30536); assay: Inhibition of peripheral-type benzodiazepine receptor (unknown origin)
Chain of Translocator protein (P30536 whole entry): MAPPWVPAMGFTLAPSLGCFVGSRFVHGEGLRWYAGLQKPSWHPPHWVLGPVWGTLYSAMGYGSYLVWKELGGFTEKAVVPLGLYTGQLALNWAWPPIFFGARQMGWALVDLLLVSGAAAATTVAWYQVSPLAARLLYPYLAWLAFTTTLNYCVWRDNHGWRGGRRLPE

For `COC(=O)C[C@@H]1N=C(c2ccc(Cl)cc2)c2c(sc(C)c2C)-n2c(C)nnc21`, the pIC50 (Adenosine receptor A3) was 5.85 and the pIC50 (Translocator protein) was 6.40.
